Results: patent US20240279600A1, “COMPOSITIONS AND METHODS FOR PROMOTING IN VITRO MATURATION OF CELLS” (MEMORIAL SLOAN-KETTERING CANCER CENTER, priority 2021, published 2024)
Entries after “also recorded” stand apart in the source; their conditions may differ.

Tests used:
Type in all cases: cell-based, human
[1] = tested on: hPSC-derived cortical neurons from treated NPC; assay: Western blot for maturation markers after transient inhibition of chromatin regulators in NPC; details: NPC treated d12 to d20, neurons analysed d35, versus DMSO
[2] = tested on: hPSC-derived cortical neurons from treated NPC; assay: Ca2+ imaging (GCaMP6m) after transient inhibition of chromatin regulators in NPC; details: NPC treated d12 to d20, imaging d40, versus DMSO
[3] = tested on: hPSC-derived cortical neurons; assay: High-content maturity assay / chemical screen in hPSC-derived cortical neurons; details: for dose-response validation, mean of 4 maturity parameters normalized to DMSO (mean maturation score): 30 nM-10,000 nM, nuclear size and roundness, neurite length, KCl-induced FOS/EGR1+ cells; for number of cells (cell viability / neuron survival): with respect to DMSO, treatment days 7-14, day 21
Source text: The phenotypic complexity of neurons makes single-readout assays unsuitable to fully capture maturation stages. Therefore, a multi-phenotype approach (via high-content screening, HCS) (Boutros M., Heigwer F. & Laufer C. Cell vol. 163 1314-1325 (2015)) was used to design an assay that simultaneously monitors distinct features of neuronal maturation (FIG. 1A). Dendritic outgrowth is a widely used parameter of neuron maturity (Wu, G. Y. et al., J. Neurosci. 19, 4472-4483 (1999)) and can be monitored through automated tracing of microtubule-associated protein 2 (MAP2) immunostaining (FIGS. 1B and 1C). Changes in nuclear size and morphology are also characteristic of neuron development and maturation (Ito K. & Takizawa T., Frontiers in Genetics vol. 9 (2018)) and can be tracked via DAPI counterstaining (FIGS. 1B and 1C). As an indirect measurement of neuronal function and excitability, the nuclear expression of immediate early gene (IEG) products FOS and EGR1 were quantified following 2 hours of potassium chloride (KCl) stimulation (FIGS. 1B and 1D). IEGs are defined by their rapid induction in the absence of de-novo protein synthesis by stimuli that include sustained membrane depolarization in neurons (Sheng M. & Greenberg M. E., Neuron vol. 4 477-485 (1990)). In contrast to more traditional measures of neuronal activity such as calcium imaging and electrophysiology, IEG immunoreactivity is readily scalable as a readout for thousands of treatment conditions. However, IEGs can be triggered by stimuli other than neuronal activity including growth factor signaling (Greenberg M. E. & Ziff E. B., Nature 311, 433-438 (1984)) and cellular stress responses (Murai J. et al., Cell Rep. 30, 4137-4151.e6 (2020)). Therefore, to avoid direct activation of IEGs, transient compound treatment (day 7-14) was used and all measurements were performed after rinsing of compounds followed by culture in compound-free medium for an additional 7 days (day 14-21) prior to analysis (FIG. 1A). Furthermore, IEGs under both basal and KCl-stimulated conditions were recorded to specifically determine the depolarization-induced signal by subtracting baseline from KCl-induced responses. Measuring maturation readouts only after compound withdrawal enabled the identification of compounds that trigger a long-lasting “memory” of a maturation stimulus even after compound removal.
The present maturity assay was then applied to screen a library of 2688 bioactive compounds in hPSC-derived cortical neurons (FIG. 6A). The library was applied at 5 μM and standard scores (z-scores) of duplicate screen runs were averaged for analysis. Viability was determined by quantifying intact nuclei, and 325 toxic compounds with a z-score below −2 were excluded from further analysis (FIG. 6B). For HCS hit selection, principal component analysis (PCA) was applied to 6 maturity z-scores to identify patterns of distribution among compounds, avoiding single threshold hit discrimination (Singh S. et al., Journal of Biomolecular Screening vol. 19 640-650 (2014)) (FIG. 1E, left panel). The 6 parameters were: nuclear size and roundness, total neurite length and branching (number of segments per cell), and fractions of KCl-induced FOS+ and EGR1+ cells. Three phenotypic clusters of compounds were identified by PCA: maturation enhancers (hits); maturation suppressors, consisting mostly of inhibitors of the PI3K/AKT/mTOR axis; and inducers of non-neuronal contaminant proliferation, which were highly enriched in TGF-β signaling inhibitors as well as inhibitors of rho-associated protein kinase (ROCK) and other signaling pathways (FIG. 1E, right panel).
A bioactive compound library containing 2688 compounds was used for screening at a concentration of 5 μM (Selleck Bioactive Library, Selleck Chemicals). 192 DMSO wells contained within the library were used as negative controls. […]

Row | SMILES | expression of the maturation markers Nefh and Stx1a [1] | amplitude of individual Ca2+ spikes [2] | frequency of individual Ca2+ spikes [2] | synchronicity of the neuronal network (synchronous firing rate) [2] | dose-response validation, mean of 4 maturity parameters normalized to DMSO (mean maturation score) [3] | number of cells (cell viability / neuron survival) [3]
1 | CCCc1cc(C)[nH]c(=O)c1CNC(=O)c1cc(-c2ccnc(N3CCN(C)CC3)c2)cc2c1cnn2C(C)C [GSK343, N-[(6-methyl-2-oxo-4-propyl-1H-pyridin-3-yl)methyl]-6-[2-(4-methylpiperazin-1-yl)pyridin-4-yl]-1-propan-2-ylindazole-4-carboxamide] | robust increased expression | marked and highly significant increase | marked and highly significant increase | marked and highly significant increase | – | –
2 | COC(=O)C1=C(C)NC(C)=C([N+](=O)[O-])C1c1ccccc1C(F)(F)F (stereo not drawn) [Bay K 8644, methyl 2,6-dimethyl-5-nitro-4-[2-(trifluoromethyl)phenyl]-1,4-dihydropyridine-3-carboxylate] | – | – | – | – | confirmed hits | did not significantly affect neuron survival
3 | O=C(O)c1ccc(CN2CCC(CN[C@@H]3C[C@H]3c3ccccc3)CC2)cc1 [GSK2879552, 4-[[4-[[[(1R,2S)-2-phenylcyclopropyl]amino]methyl]piperidin-1-yl]methyl]benzoic acid] | – | – | – | – | stronger combined effect than OG-L002; also recorded: confirmed hits | did not significantly affect neuron survival
4 | CC(C)N(C[C@H]1O[C@@H](n2cnc3c(N)ncnc32)[C@H](O)[C@@H]1O)[C@H]1C[C@@H](CCc2nc3cc(C(C)(C)C)ccc3[nH]2)C1 [EPZ-5676, (2R,3R,4S,5R)-2-(6-aminopurin-9-yl)-5-[[[3-[2-(6-tert-butyl-1H-benzimidazol-2-yl)ethyl]cyclobutyl]-propan-2-ylamino]methyl]oxolane-3,4-dioland] | – | – | – | – | confirmed hits | did not significantly affect neuron survival
5 | COc1cc2c(NC3CCN(C(C)C)CC3)nc(C3CCCCC3)nc2cc1OCCCN1CCCC1 [UNC0638, 2-cyclohexyl-6-methoxy-N-(1-propan-2-ylpiperidin-4-yl)-7-(3-pyrrolidin-1-ylpropoxy)quinazolin-4-amine] | robust increased expression | – | – | significant changes | – | –
6 | N[C@H]1C[C@@H]1c1ccc(-c2cccc(O)c2)cc1 [OG-L002] | – | – | – | – | confirmed hits | –
7 | CC(C)N(CCCNC(=O)Nc1ccc(C(C)(C)C)cc1)C[C@H]1O[C@@H](n2ccc3c(N)ncnc32)[C@H](O)[C@@H]1O [EPZ004777, 1-[3-[[(2R,3S,4R,5R)-5-(4-aminopyrrolo[2,3-d]pyrimidin-7-yl)-3,4-dihydroxyoxolan-2-yl]methyl-propan-2-ylamino]propyl]-3-(4-tert-butylphenyl)urea] | robust increased expression | – | – | modest functional enhancement with an increased synchronous firing rate | – | –
